Earlier results in patent US7838696B2, “Hydroconversion process employing multi-metallic catalysts and method for making thereof” (Chevron U. S. A. Inc., priority 2007, dated 2010).

System: rats
Conditions: rat, in vivo, po

## O=CC(=O)O [glyoxylic, glyoxylic acid]
  LD50: 3000 mg/kg
